Measured values reported in patent US10131663B2, “Chemical compounds” (AstraZeneca AB, priority 2016, dated 2018).
In brackets after ≈: the same amount, converted by molar mass.

What was measured:
[1] = molecular target: recombinant human Estrogen Receptor alpha ligand binding domain (ER alpha-LBD (GST)) (Homo sapiens (Human), UniProt P03372); assay: ERα binding assay (LanthaScreen TR-FRET competition); settings: TR-FRET, displacement of Fluormone ES2
Protocol: The ability of compounds to bind to isolated Estrogen Receptor Alpha Ligand binding domain (ER alpha-LBD (GST)) was assessed in competition assays using a LanthaScreen™ Time-Resolved Fluorescence Resonance Energy Transfer (TR-FRET) detection end-point. […] The assay principle is that ER alpha-LBD (GST) is added to a fluorescent ligand to form a receptor/fluorophore complex. A terbium-labelled anti-GST antibody (Product code PV3551) is used to indirectly label the receptor by binding to its GST tag, and competitive binding is detected by a test compound's ability to displace the fluorescent ligand, resulting in a loss of TR-FRET signal between the Tb-anti-GST antibody and the tracer. The assay was performed as follows with all reagent additions carried out using the Beckman Coulter BioRAPTR FRD microfluidic workstation: • 1. Acoustic dispense 120 nL of the test compound into a black low volume 384 well assay plates. • 2. Prepare 1×ER alpha-LBD/Tb-antiGST Ab in ES2 screening buffer and incubate for 15 minutes. • 3. Dispense 6 μL of the 1×[…]/Tb-anti-GST Ab reagent into each well of the assay plate followed by 6 μL of Fluorophore reagent into each well of the assay plate • 4. Cover the assay plate to protect the reagents from light and evaporation, and incubate at room temperature for 4 hours. • 5.
TR-FRET dose response data obtained with each compound was exported into a suitable software package (such as Origin or Genedata) to perform curve fitting analysis. Competitive ER alpha binding was expressed as an IC50 value.

[2] = log D (shake flask, 1-octanol/aqueous buffer); type: physicochemical
From the text: The lipophilicity of a drug is an important physical property which may influence many biological and metabolic properties of a compound, for example the absorption, distribution, metabolism, excretion and toxicity profiles of a compound. The distribution coefficient between 1-octanol and aqueous buffer, Log DO/W, at pH 7.4, is the most commonly used measurement of the lipophilicity of a compound. The current method for measurement of Log DO/W is based on the traditional shake flask technique, but with the modification of measuring compounds in mixtures of ten at a time using UPLC with quantitative mass spectrometry (MS) as a method to measure the relative octanol and aqueous concentrations. […] An additional QC sample Caffeine, with low Log D, are used and randomly placed in all runs. The method has been thoroughly validated against the previous shake flask methodologies.

[3] = molecular target: Estrogen Receptor (ERα) in MCF-7 cells (Homo sapiens (Human), UniProt P03372); assay: MCF-7 ER down-regulation assay (immuno-fluorescence); type: cell-based
Protocol: The Echo uses acoustic technology to perform direct microplate-to-microplate transfers of DMSO compound solutions to assay plates. […] Cells were fixed at room temperature for 20 mins before being washed two times with 250 μL PBS/Proclin (PBS with a Biocide preservative) using a BioTek platewasher, 40 μL of PBS/Proclin was then added to all wells and the plates stored at 4° C. The fixing method described above was carried out on the Integrated Echo 2 workcell. Immunostaining was performed using an automated AutoElisa workcell. […] The plates were incubated overnight at 4° C. […] The mean total intensity was normalized for cell number giving the total intensity per cell. The data was exported into a suitable software package (such as Origin) to perform curve fitting analysis.

hERG potassium channel = hERG potassium channel (Homo sapiens (Human), UniProt Q12809); assay: hERG binding assay (automated patch clamp, CHO cells); type: cell-based; settings: CHO cell line, Nanion Syncropatch 384PE
Protocol: Reagent preparations include: • 1.
Cell preparations: • 1. If using cell culture; cells to be incubated at 30° C. for approximately 4-6 days prior to being used. Day of assay lift cells using accutase and re-suspend in 20 ml cell buffer to a density of 0.8 to 1e6 cells/ml. • 2. If using assay ready cryovials; rapidly thaw two cryovials at 37° C. and slowly pipette into 23 ml external solution • 3.
All compounds were acoustically dispensed in quadruplicate using a Labcyte Echo. […] Fill 384 well medium resistance 4 hole chips with 40 μl external buffer and perfuse internal buffer to the underside of plate. • 2. Dispense 20 μl of cells into each well of the chip followed by 20 μl of seal enhancer. • 3. Remove 40 μl of reagent from each well to the wash station, leaving a residual volume of 40 μl • 4. Dispense 40 μl of reference buffer with a removal step of 40 μl after 3 min, repeat this step. • 5.
hERG-mediated currents were elicited using a voltage step protocol consisting of acontinuous holding voltage of −80 mV, with a 500 ms step to 60 mV followed by a 500 ms step to −40 mV every 15 seconds. hERG current magnitude was measured automatically from the leak-subtracted traces by the Nanion software by taking the peak of the hERG “tail” current at −40 mV every 15 seconds and taking the last three of these responses for each concentration to generate the concentration-effect curve.
Calculation of results is performed using APC package within Genedata. For the routine normalization of well data with Neutral and Inhibitor control well groups as reference, GeneData Assay Analyzer uses the following equation to normalize the signal values to the desired signal range:
[formula] • x is the measured raw signal value of a well • is the median of the measured signal values for the Central Reference (Neutral) wells on a plate • is the median of the measured signal values for the Scale Reference (Inhibitor) wells on a plate • CR is the desired median normalized value for the Central Reference (Neutral) • SR is the desired median normalized value for the Scale Reference (Inhibitor)

[4] = Thermodynamic solubility (shake-flask); type: physicochemical; settings: aqueous phosphate buffer, 25 °C, pH 7.4, aqueous buffer, thermodynamic from solid, aqueous phosphate buffer pH 7.4, 24 hours
Protocol: The thermodynamic solubility of a research compound is measured under standard conditions. It is a shake-flask approach that uses 10 mM DMSO solutions which are supplied from the Compound Managements liquid store and is a high throughput method. The dried compounds are equilibrated in an aqueous phosphate buffer (pH 7.4) for 24 hours at 25° C., the portion with the dissolved compound is then separated from the remains. The solutions are analyzed and quantified using UPLC/MS/MS, QC-samples are incorporated in each assay-run to ensure the quality of the assay.

[5] = Human plasma protein binding (equilibrium dialysis); type: in vitro ADME; settings: dialysis 18 hours
Protocol: The automated equilibrium dialysis assay in human plasma uses the RED (Rapid Equilibrium Dialysis) Device and sample handling. The assay generally runs over two to three days including delivery of results. After dialysis for 18 hours, plasma and buffer samples are prepared for analysis by liquid chromatography and mass spectrometry. Samples are generally tested in singlicates and quantified by LC/MSMS by using a 7-point calibration curve in plasma. The compounds are pooled together in plasma pools up to 10 compounds. Three reference compounds are used in each run, Propranolol, Metoprolol and Warfarin. Warfarin is used as a control in each pool and Propranolol and Metoprolol are placed randomly in each run. An in-house Excel macro is used for preparation of files for the robot and the mass spectrometer and is also used for the calculations of fraction unbound (fu %) in plasma.

[6] = 1-octanol/aqueous buffer, pH 7.4, pH 7.4, 1-octanol/aqueous buffer
[7] = pH 7.4, 1-octanol/aqueous buffer

Sequence of hERG potassium channel (Q12809 whole entry): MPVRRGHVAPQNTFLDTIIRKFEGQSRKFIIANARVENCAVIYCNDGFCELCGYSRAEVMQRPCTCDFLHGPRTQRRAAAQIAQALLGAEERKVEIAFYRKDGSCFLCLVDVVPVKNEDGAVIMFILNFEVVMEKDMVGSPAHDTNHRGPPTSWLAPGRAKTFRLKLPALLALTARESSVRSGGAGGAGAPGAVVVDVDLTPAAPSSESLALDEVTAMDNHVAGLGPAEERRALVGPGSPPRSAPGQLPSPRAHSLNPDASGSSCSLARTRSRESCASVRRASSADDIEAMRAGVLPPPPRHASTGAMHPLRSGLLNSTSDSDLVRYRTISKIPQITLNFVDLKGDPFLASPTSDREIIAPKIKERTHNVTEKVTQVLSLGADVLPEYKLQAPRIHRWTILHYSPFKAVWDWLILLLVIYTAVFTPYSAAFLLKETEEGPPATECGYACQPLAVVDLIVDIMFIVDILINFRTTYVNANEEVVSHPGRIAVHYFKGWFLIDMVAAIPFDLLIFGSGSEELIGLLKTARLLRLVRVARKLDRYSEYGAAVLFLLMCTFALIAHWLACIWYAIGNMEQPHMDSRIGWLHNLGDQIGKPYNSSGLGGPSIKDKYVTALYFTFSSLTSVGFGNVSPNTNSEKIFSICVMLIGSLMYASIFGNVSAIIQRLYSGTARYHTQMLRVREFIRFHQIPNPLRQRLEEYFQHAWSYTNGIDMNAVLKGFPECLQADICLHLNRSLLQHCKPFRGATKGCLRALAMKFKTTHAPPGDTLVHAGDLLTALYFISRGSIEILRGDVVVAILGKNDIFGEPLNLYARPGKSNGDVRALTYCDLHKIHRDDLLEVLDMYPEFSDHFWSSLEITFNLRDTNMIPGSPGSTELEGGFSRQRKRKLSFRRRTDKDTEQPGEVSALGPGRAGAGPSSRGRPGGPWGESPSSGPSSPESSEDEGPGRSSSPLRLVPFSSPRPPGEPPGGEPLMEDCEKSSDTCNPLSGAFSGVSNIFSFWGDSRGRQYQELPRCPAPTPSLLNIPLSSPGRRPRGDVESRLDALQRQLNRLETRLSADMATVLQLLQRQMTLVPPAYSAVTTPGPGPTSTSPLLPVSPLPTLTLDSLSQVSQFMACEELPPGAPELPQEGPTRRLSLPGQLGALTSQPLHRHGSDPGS
Sequence of recombinant human Estrogen Receptor alpha ligand binding domain (ER alpha-LBD (GST)) (P03372 307-554): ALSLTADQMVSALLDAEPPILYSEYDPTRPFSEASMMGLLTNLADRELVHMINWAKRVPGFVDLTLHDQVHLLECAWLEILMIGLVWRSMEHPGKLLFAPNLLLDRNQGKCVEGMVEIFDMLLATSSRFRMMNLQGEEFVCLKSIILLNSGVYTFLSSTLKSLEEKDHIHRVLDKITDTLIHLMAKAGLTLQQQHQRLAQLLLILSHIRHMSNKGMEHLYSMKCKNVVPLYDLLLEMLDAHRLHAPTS
Sequence of Estrogen Receptor (ERα) in MCF-7 cells (P03372 whole entry): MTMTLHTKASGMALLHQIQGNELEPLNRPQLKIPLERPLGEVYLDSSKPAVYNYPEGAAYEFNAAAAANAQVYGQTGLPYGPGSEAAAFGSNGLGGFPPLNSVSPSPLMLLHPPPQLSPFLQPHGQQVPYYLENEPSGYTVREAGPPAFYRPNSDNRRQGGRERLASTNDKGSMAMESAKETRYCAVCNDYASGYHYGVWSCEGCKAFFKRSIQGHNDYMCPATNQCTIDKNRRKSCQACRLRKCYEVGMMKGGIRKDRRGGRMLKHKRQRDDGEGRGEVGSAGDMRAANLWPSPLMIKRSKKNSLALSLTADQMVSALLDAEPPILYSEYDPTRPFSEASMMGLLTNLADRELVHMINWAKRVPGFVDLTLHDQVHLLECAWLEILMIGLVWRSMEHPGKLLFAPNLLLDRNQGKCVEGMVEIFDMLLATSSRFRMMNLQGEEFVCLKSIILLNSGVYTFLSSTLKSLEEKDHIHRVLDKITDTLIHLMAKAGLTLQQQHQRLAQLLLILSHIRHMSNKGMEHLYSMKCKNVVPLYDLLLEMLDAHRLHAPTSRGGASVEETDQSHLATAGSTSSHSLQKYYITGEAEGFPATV

Row | Structure (SMILES) | IC50 [1] [nM] | logD [2, 6] | IC50 [3] [nM] | IC50 (hERG potassium channel) [µM] | solubility at 24 h [4] [µM] | Human plasma protein binding (% free) [5] [% free] | logD [2, 7] | DC50 ([3]; read-out: ER down regulation IC50 value) [nM]
1 | C[C@@H]1Cc2c(ccc3[nH]ncc23)[C@@H](c2cnc(NC3CN(CCCF)C3)cn2)N1CC1(F)CC1 [Example 55, 5-((6S,8R)-7-((1-fluorocyclopropyl)methyl)-8-methyl-6,7,8,9-tetrahydro-3H-pyrazolo[4,3-f]isoquinolin-6-yl)-N-(1-(3-fluoropropyl)azetidin-3-yl)pyrazin-2-amine] | 8.2 | 2.1 | 1.1 | > 40 | 987 (≈ 461 µg/mL) |  |  | 
2 | C[C@@H]1Cc2c(ccc3[nH]ncc23)[C@@H](c2cnc(NC3CN(CCCF)C3)cn2)N1CC(F)F [Example 50, 5-((6S,8R)-7-(2,2-difluoroethyl)-8-methyl-6,7,8,9-tetrahydro-3H-pyrazolo[4,3-f]isoquinolin-6-yl)-N-(1-(3-fluoropropyl)azetidin-3-yl)pyrazin-2-amine] | 2.7 | 2.1 | 0.47 | 13 | 748 (≈ 344 µg/mL) |  |  | 
3 | C[C@@H]1Cc2c(ccc3[nH]ncc23)[C@@H](c2ccc(OC3CN(CCCF)C3)cn2)N1CC(F)(F)CO [Example 58, 2,2-difluoro-3-((6S,8R)-6-(5-((1-(3-fluoropropyl)azetidin-3-yl)oxy)pyridin-2-yl)-8-methyl-3,6,8,9-tetrahydro-7H-pyrazolo[4,3-f]isoquinolin-7-yl)propan-1-ol] | 2.1 | 2.4 | 0.56 | > 40 | 633 (≈ 310 µg/mL) |  |  | 
4 | C[C@@H]1Cc2c(ccc3[nH]ncc23)[C@@H](c2ccc(NC3CN(CCCF)C3)c(F)c2)N1CC(F)(F)F [Example 41, N-(2-fluoro-4-((6R,8R)-8-methyl-7-(2,2,2-trifluoroethyl)-6,7,8,9-tetrahydro-3H-pyrazolo[4,3-f]isoquinolin-6-yl)phenyl)-1-(3-fluoropropyl)azetidin-3-amine] | 2.4 | 4.1 | 0.17 | 6.5 | 120 (≈ 59.2 µg/mL) | 2.2 |  | 
5 | C[C@@H]1Cc2c(ccc3[nH]nc(F)c23)[C@@H](c2ccc(NC3CN(CCCF)C3)cn2)N1CC(F)(F)CO [Example 61, 2,2-difluoro-3-((6S,8R)-1-fluoro-6-(5-((1-(3-fluoropropyl)azetidin-3-yl)amino)pyridin-2-yl)-8-methyl-3,6,8,9-tetrahydro-7H-pyrazolo[4,3-f]isoquinolin-7-yl)propan-1-ol] | 0.88 | 2.7 | 0.13 | > 40 | 848 (≈ 430 µg/mL) | 29 |  | 
6 | C[C@@H]1Cc2c(ccc3[nH]ncc23)[C@@H](c2ccc(N(C)C3CN(CCCF)C3)cn2)N1CC1(F)CC1 [Example 57, 6-((6S,8R)-7-((1-fluorocyclopropyl)methyl)-8-methyl-6,7,8,9-tetrahydro-3H-pyrazolo[4 3-f]isoquinolin-6-yl)-N-(1-(3-fluoropropyl)azetidin-3-yl)-N-methylpyridin-3-amine] | 5 | 2.9 | 0.36 | 16 | 615 (≈ 296 µg/mL) |  |  | 
7 | C[C@@H]1Cc2c(ccc3[nH]nc(F)c23)[C@@H](c2ccc(NC3CN(CCCF)C3)c(F)n2)N1CC(F)(F)F [Example 39, 2-fluoro-6-((6S,8R)-1-fluoro-8-methyl-7-(2,2,2-trifluoroethyl)-6,7,8,9-tetrahydro-3H-pyrazolo[4,3-f]isoquinolin-6-yl)-N-(1-(3-fluoropropyl)azetidin-3-yl)pyridin-3-amine] | 0.94 |  | 0.048 | 14 | 257 (≈ 132 µg/mL) | 6.8 | 3.7 | 
8 | C[C@@H]1Cc2c(ccc3[nH]ncc23)[C@@H](c2c(F)cc(NC3CN(CCCF)C3)cc2F)N1CC(C)(F)CO (single isomer, unassigned) [Example 23] | 15 | 3.1 |  |  | 339 (≈ 176 µg/mL) | 9.5 |  | 0.15
9 | COc1cc(NC2CN(CCCF)C2)ccc1[C@@H]1c2ccc3[nH]ncc3c2C[C@@H](C)N1CC1(CF)COC1 [Example 10, N-(4-((6S,8R)-7-((3-(fluoromethyl)oxetan-3-yl)methyl)-8-methyl-6,7,8,9-tetrahydro-3H-pyrazolo[4,3-f]isoquinolin-6-yl)-3-methoxyphenyl)-1-(3-fluoropropyl)azetidin-3-amine] | 8 | 2.8 | 0.26 |  | 634 (≈ 333 µg/mL) | 23 |  | 
10 | C[C@@H]1Cc2c(ccc3[nH]ncc23)[C@@](C)(c2ccc(NC3CN(CCCF)C3)cn2)N1CC(F)F [Example 44, 6-((6S,8R)-7-(2,2-difluoroethyl)-6,8-dimethyl-6,7,8,9-tetrahydro-3H-pyrazolo[4,3-f]isoquinolin-6-yl)-N-(1-(3-fluoropropyl)azetidin-3-yl)pyridin-3-amine] | 9.6 |  | 0.91 |  | 998 (≈ 472 µg/mL) | 10 | 3.2 | 
11 | CCOc1cc(NC2CN(CCCF)C2)ccc1[C@@H]1c2ccc3[nH]ncc3c2C[C@@H](C)N1CC1(F)CC1 [Example 20, N-(3-ethoxy-4-((6S,8R)-7-((1-fluorocyclopropyl)methyl)-8-methyl-6,7,8,9-tetrahydro-3H-pyrazolo[4,3-f]isoquinolin-6-yl)phenyl)-1-(3-fluoropropyl)azetidin-3-amine] | 15 | 2.8 | 0.36 |  | 730 (≈ 372 µg/mL) | 29 |  | 
